Laboratory results: US6207674A, “Dextromethorphan and oxidase inhibitor for weaning patients from narcotics and anti-depressants” (priority 1999, dated 2001)
Where two headings read alike, the source gives them in different places.

Experiments:
[1] = test system: cytochrome P450-2D6 enzyme; conditions: cited from earlier work
[2] = test system: morphine and anti-depressant dependence; assay: Patient Number 1, initial 3-week trial of DM alone (neuropathic pain, weaning from morphine and anti-depressants); assay type: in vivo, human
From the text: They took capsules with 30 milligrams of DM, twice each day.

[3] = test system: pain; conditions: DM combined with morphine; published reports; cited from earlier work
[4] = coadministration with DM; cited from earlier work
[5] = DM 30 mg twice a day, oral, about three weeks, no quinidine
[6] = read-out: Michaelis-Menton inhibition (Ki) value, P450-2D6, in vitro, Inaba et al 1985

SMILES: COCCc1ccc(OCC(O)CNC(C)C)cc1 (racemic) [metaprolol]
- Ki [1]: 18 µM

SMILES: COc1ccc2c(c1)[C@]13CCCC[C@@H]1[C@H](C2)N(C)CC3 [DM, dextromethorphan]
- symptoms reported at follow-up exam [2, 5]: symptoms were unchanged
- use and dosages of morphine and WELLBUTRIN [2, 5]: remained the same
- nighttime dosage of ELAVIL at follow-up ([2]; reduced from 250 mg, DM 30 mg twice a day, about three weeks, no quinidine): 100 mg
- overall result of DM by itself (summary) ([2]; without an oxidase inhibitor): no substantial benefit
- potentiation of pain-relieving activity of morphine [3]: potentiated the pain-relieving activity of morphine

SMILES: CNCCC(Oc1ccc(C(F)(F)F)cc1)c1ccccc1 (stereo not shown) [Fluoxetine, fluoxetine]
- effect on DM concentration / level in blood [4]: increase the concentrations of DM

SMILES: C=C[C@H]1C[N@@]2CC[C@H]1C[C@@H]2[C@@H](O)c1ccnc2ccc(OC)cc12 [Quinidine, quinidine]
- Ki [1, 6]: 0.06 µM
- effect on DM concentration / level in blood [4]: increase the level of DM in the blood of most patients

SMILES: CC[C@H]1[C@@H]2C[C@H]3[C@@H]4N(C)c5ccccc5[C@]45C[C@@H]([C@H]2[C@H]5O)N3[C@@H]1O [ajmaline]
- Ki [1, 6]: 2 µM

SMILES: O=c1[nH]c2ccccc2n1CCCN1CCC(n2c(=O)[nH]c3cc(Cl)ccc32)CC1 [domperidone]
- Ki [1, 6]: 8 µM

SMILES: O=C(CCCN1CCC(O)(c2ccc(Cl)cc2)CC1)c1ccc(F)cc1 [haloperidol]
- Ki [1]: 1 µM

SMILES: CC(CCc1ccccc1)NCC(O)c1ccc(O)c(C(N)=O)c1 (stereo not shown) [labetalol]
- Ki [1, 6]: 7 µM

SMILES: CN1[C@@H](CC(=O)c2ccccc2)CCC[C@H]1C[C@H](O)c1ccccc1 [lobeline]
- Ki [1, 6]: 2 µM

SMILES: Cc1cccc(C)c1OCC(C)N (stereo not shown) [mexiletine]
- Ki [1, 6]: 30 µM

SMILES: CNCCC=C1c2ccccc2CCc2ccccc21 [nortriptyline]
- Ki [1, 6]: 15 µM

SMILES: C=CCOc1ccccc1OCC(O)CNC(C)C (stereo not shown) [oxprenolol]
- Ki [1, 6]: 15 µM

SMILES: COc1ccc(Cc2nccc3cc(OC)c(OC)cc23)cc1OC [papaverine]
- Ki [1, 6]: 25 µM

SMILES: NC(=O)C1(N2CCCCC2)CCN(CCCC(=O)c2ccc(F)cc2)CC1 [pipamperone]
- Ki [1]: 4 µM

SMILES: CC(C)NCC(O)COc1cccc2ccccc12 (stereo not shown) [propranolol]
- Ki [1, 6]: 15 µM

SMILES: C=C[C@H]1C[N@@]2CC[C@H]1C[C@H]2[C@H](O)c1ccnc2ccc(OC)cc12 [quinine]
- Ki [1, 6]: 15 µM

SMILES: CC(C)(C)NC[C@H](O)COc1nsnc1N1CCOCC1 [timolol]
- Ki [1, 6]: 18 µM
